Measured values published in ChEMBL document CHEMBL5244222, “A comprehensive review on xanthone derivatives as α-glucosidase inhibitors” (Eur J Med Chem, 2018).
In brackets after ≈: the same amount, converted by molar mass. One block for each compound: values may come before it.

What was measured:
Alpha-glucosidase [1] = target: T1, Alpha-glucosidase (Saccharomyces cerevisiae S288c, UniProt P53341+P38158+P07265); assay: Inhibition of Saccharomyces cerevisiae alpha-glucosidase using maltose as substrate incubated for 30 mins by spectrophotometric assay; assay type: protein assay
Alpha-glucosidase [2] = target: T1, Alpha-glucosidase; assay: Inhibition of Saccharomyces cerevisiae alpha-glucosidase using PNPG as substrate incubated for 30 mins by spectrophotometric assay; assay type: protein assay
Alpha-glucosidase [3] = target: T1, Alpha-glucosidase; assay: Inhibition of Saccharomyces cerevisiae alpha-glucosidase assessed as release of p-nitrophenol using pNPG as substrate preincubated for 15 mins followed by substrate addition and measured after 5 mins by spectrophotometric assay; assay type: protein assay
Alpha-glucosidase [4] = target: T1, Alpha-glucosidase; assay: Inhibition of Saccharomyces cerevisiae alpha-glucosidase assessed as release of p-nitrophenol using pNPG as substrate preincubated for 15 mins followed by substrate addition and measured after 15 mins by plate reader analysis; assay type: protein assay
Alpha-glucosidase [5] = target: T1, Alpha-glucosidase; assay: Mixed-type inhibition of Saccharomyces cerevisiae alpha-glucosidase using PNPG as substrate incubated for 30 mins by Lineweaver-Burk double-reciprocal plot analysis; assay type: protein assay
Alpha-glucosidase [6] = target: T1, Alpha-glucosidase; assay: Inhibition of Saccharomyces cerevisiae alpha-glucosidase using pNPG as preincubated for 15 mins followed by substrate addition and measured after 30 mins by spectroscopic analysis
Alpha-glucosidase [7] = target: T1, Alpha-glucosidase; assay: Inhibition of yeast alpha-glucosidase using p-nitrophenyl-alpha-D-glucopyranoside as substrate incubated for 30 mins by spectrophotometric assay; assay type: protein assay
Alpha-glucosidase [8] = target: T1, Alpha-glucosidase; assay: Inhibition of yeast alpha-glucosidase assessed as release of p-nitrophenol using PNPG as substrate preincubated for 10 mins followed by substrate addition and measured after 35 mins by microplate photometer analysis; assay type: protein assay

IC50 (Alpha-glucosidase [1]): 140.2 µM | IC50 (Alpha-glucosidase [2]): 29.9 µM
SMILES: C=C(C)/C=C/c1c(O)cc2oc3cc(O)c(OC)c(CCC(C)(C)O)c3c(=O)c2c1O

IC50 (Alpha-glucosidase [1]): > 200 µM | IC50 (Alpha-glucosidase [2]): 50.5 µM
SMILES: C=C(C)/C=C/c1c(OC)cc2c(c1O)Cc1c(O)ccc(O)c1O2

IC50 (Alpha-glucosidase [3]): 111.8 µM
SMILES: C=C(C)/C=C/[C@]1(C)C=CC2=C(O1)C(CC=C(C)C)=C1O[C@]34C(C(=O)[C@@H]1C2O)[C@@H](OCC)[C@@H]1C[C@H]3C(C)(C)O[C@@]4(C/C=C(\C)C(=O)O)C1=O (stereo partly specified)

IC50 (Alpha-glucosidase [3]): > 300 µM
SMILES: CC(C)=CCC/C(C)=C/Cc1c(C)c(CC=C(C)C)c2c(c1O)C(=O)C1=C[C@@H]3C[C@H]4C(C)(C)O[C@@](C/C=C(\C)C(=O)O)(C3=O)[C@@]14O2

IC50 (Alpha-glucosidase [4]): 13.2 µg/mL (≈ 45.8 µM)
SMILES: COc1cc(O)c2c(=O)c3cc(O)ccc3oc2c1OC

Ki (Alpha-glucosidase [5]): 14.8 µM | IC50 (Alpha-glucosidase [1]): 192 µM | IC50 (Alpha-glucosidase [2]): 14.4 µM
SMILES: C=C(C)/C=C/c1c(OC)cc2oc3cc(O)c(OC)c(/C=C/C(=C)C)c3c(=O)c2c1O

IC50 (Alpha-glucosidase [3]): > 300 µM
SMILES: CC(C)=CCC1=C2O[C@]34C(C[C@@H]5C[C@H]3C(C)(C)O[C@@]4(C/C=C(\C)C(=O)O)C5=O)C(=O)[C@@H]2C(O)C2=C1OC(C)C=C2 (stereo partly specified)

Ki (Alpha-glucosidase [5]): 12.3 µM | IC50 (Alpha-glucosidase [1]): 137.2 µM | IC50 (Alpha-glucosidase [2]): 21.5 µM
SMILES: C=C(C)/C=C/c1c(O)c(CC=C(C)C)c2oc3c(O)cccc3c(=O)c2c1O

IC50 (Alpha-glucosidase [6]): > 1000 µM
SMILES: COc1cccc2c(=O)c3c(O)cc(O[C@H]4O[C@@H](CO)[C@H](O)[C@H](O)[C@@H]4O)c(OC)c3oc12

IC50 (Alpha-glucosidase [6]): 258 µM
SMILES: COc1ccc(O)c2c(=O)c3c(O[C@H]4O[C@@H](CO)[C@H](O[C@H]5O[C@@H](CO)[C@H](O)[C@H](O)[C@@H]5O)[C@H](O)[C@@H]4O)cc(O)c(OC)c3oc12

IC50 (Alpha-glucosidase [4]): 63.4 µg/mL (≈ 208 µM)
SMILES: COc1c(O)cc2oc3ccc(O)c(OC)c3c(=O)c2c1O

IC50 (Alpha-glucosidase [6]): 578 µM
SMILES: COc1ccc(O)c2c(=O)c3c(O[C@H]4O[C@@H](CO)[C@H](O)[C@H](O)[C@@H]4O)cc(O)c(OC)c3oc12

IC50 (Alpha-glucosidase [7]): 69 µM
SMILES: COc1c(O)ccc2oc3c4c(c(CC=C(C)C)c(O)c3c(=O)c12)OC(C(C)(O)CCC=C(C)C)C4 (stereo unspecified)

IC50 (Alpha-glucosidase [4]): 7.6 µg/mL (≈ 27.7 µM)
SMILES: COc1c(O)cc2oc3ccc(O)cc3c(=O)c2c1O

IC50 (Alpha-glucosidase [3]): > 300 µM
SMILES: C=C(C)/C=C/[C@@]1(C)C=CC2=C(O1)C(CC=C(C)C)=C1O[C@]34C(=C[C@@H]5C[C@H]3C(C)(C)O[C@@]4(CC=C(C)C)C5=O)C(=O)[C@@H]1C2O (stereo partly specified)

IC50 (Alpha-glucosidase [1]): > 200 µM | IC50 (Alpha-glucosidase [2]): 63.5 µM
SMILES: C=C(C)/C=C/c1ccc2oc3c(O)cc(OC)c(CC=O)c3c(=O)c2c1O

IC50 (Alpha-glucosidase [1]): > 200 µM | IC50 (Alpha-glucosidase [2]): 58.5 µM
SMILES: C=C(C)/C=C/c1c(OC)cc2c(c1O)Cc1cccc(O)c1O2

IC50 (Alpha-glucosidase [3]): 282.7 µM
SMILES: C=C(C)/C=C/[C@@]1(C)C=CC2=C(O1)C(CC=C(C)C)=C1O[C@]34C(C(=O)[C@@H]1C2O)[C@@H](OC)[C@@H]1C[C@H]3C(C)(C)O[C@@]4(C/C=C(\C)C(=O)O)C1=O (stereo partly specified)

IC50 (Alpha-glucosidase [3]): > 300 µM
SMILES: C=C(C)C1CCC2(C)CC1c1c(O)c3c(c(CC=C(C)C)c1O2)O[C@]12C(=C[C@@H]4C[C@H]1C(C)(C)O[C@@]2(C/C=C(\C)C(=O)O)C4=O)C3=O (stereo partly specified)

IC50 (Alpha-glucosidase [8]): 53.5 µM
SMILES: C=C(C)/C=C/c1c(O)cc2oc3c(/C=C/C(=C)C)c(O)c(OC)cc3c(=O)c2c1O

IC50 (Alpha-glucosidase [8]): 14.1 µM
SMILES: C=C(C)/C=C/c1c(O)cc(O)c2c(=O)c3c(C/C=C(/C)CC=C(C)C)c(OC)c(O)cc3oc12

IC50 (Alpha-glucosidase [7]): 168.7 µM | IC50 (Alpha-glucosidase [8]): 28 µM
SMILES: COc1c(O)cc2oc3cc(O)c(C/C=C(\C)CO)c(O)c3c(=O)c2c1C/C=C(/C)CC=C(C)C

IC50 (Alpha-glucosidase [7]): 18.2 µM
SMILES: C=C(C)/C=C/c1c(OC)c(OC)cc2oc3cc(O)c(CC=C(C)C)c(O)c3c(=O)c12

IC50 (Alpha-glucosidase [4]): 27.6 µg/mL (≈ 107 µM)
SMILES: COc1ccc(O)c2c(=O)c3cc(O)ccc3oc12

IC50 (Alpha-glucosidase [4]): 59 µg/mL (≈ 185 µM)
SMILES: COc1cc(OC)c2c(=O)c3c(O)c(OC)ccc3oc2c1O

IC50 (Alpha-glucosidase [3]): > 300 µM
SMILES: CC(C)=CCC/C(C)=C/Cc1c(C)c(CC=C(C)C)c2c(c1O)C(=O)C1=C[C@@H]3C[C@H]4C(C)(C)O[C@@](CC=C(C)C)(C3=O)[C@@]14O2

IC50 (Alpha-glucosidase [6]): 478 µM
SMILES: COc1ccc(O)c2c(=O)c3c(O[C@H]4O[C@@H](CO[C@@H]5O[C@@H](CO)[C@H](O)[C@H](O)[C@@H]5O)[C@H](O)[C@H](O)[C@@H]4O)cc(O)c(OC)c3oc12

Ki (Alpha-glucosidase [5]): 18.1 µM | IC50 (Alpha-glucosidase [1]): 191.2 µM | IC50 (Alpha-glucosidase [2]): 21 µM
SMILES: C=C(C)C1Cc2c(cc3oc4cc(O)c(OC)c(CC=C(C)C)c4c(=O)c3c2O)O1 (stereo unspecified) [MANGOSTENONE F]

IC50 (Alpha-glucosidase [1]): 155.6 µM | IC50 (Alpha-glucosidase [2]): 31.7 µM
SMILES: C=C(C)/C=C/c1c(OC)c(O)cc2oc3cc4c(c(O)c3c(=O)c12)C=C(O)C(C)(C)O4
